Laboratory results reported in patent US20260365670A1, “EGFR INHIBITORS AND USES THEREOF” (DIZAL (JIANGSU) PHARMACEUTICAL CO., LTD., priority 2022, published 2026).
Like-named read-outs stand apart in the source and are kept apart here.

Columns and labels:
A-431 = test: Cell proliferation assay, A-431 cells (GI50, Table 6); type: cell-based
EGFR (d746-750 C797S) = molecular target: T1, EGFR (d746-750 C797S) (Homo sapiens, UniProt P00533, C797S/DEL746-750); test: Inhibition of EGFR (d746-750 C797S) biochemical enzymatic activity (HTRF); details: EGFR (d746-750 C797S), 1 mM ATP, 1 h at room temperature, read-out: IC50 @Del19-C797S
T1 construct: purchased signalchem
T1 sequence (P00533 with tags, fused parts or gaps DEL746-750/C797S limits assumed): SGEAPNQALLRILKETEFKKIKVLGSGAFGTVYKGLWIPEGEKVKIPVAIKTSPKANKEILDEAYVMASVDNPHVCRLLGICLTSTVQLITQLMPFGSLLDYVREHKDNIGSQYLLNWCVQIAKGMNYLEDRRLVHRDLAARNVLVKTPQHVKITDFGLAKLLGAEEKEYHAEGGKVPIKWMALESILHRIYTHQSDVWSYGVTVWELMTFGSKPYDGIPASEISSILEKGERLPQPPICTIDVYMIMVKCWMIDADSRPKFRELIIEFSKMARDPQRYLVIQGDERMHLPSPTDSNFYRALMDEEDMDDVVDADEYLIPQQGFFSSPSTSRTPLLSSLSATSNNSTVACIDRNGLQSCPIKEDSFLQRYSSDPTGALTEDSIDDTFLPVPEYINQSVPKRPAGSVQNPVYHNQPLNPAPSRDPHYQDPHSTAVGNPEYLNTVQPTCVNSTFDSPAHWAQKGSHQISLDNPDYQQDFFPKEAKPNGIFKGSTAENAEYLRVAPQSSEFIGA
In short: (§1)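 Enzyme preincubated with compound, then ATP (1 mM) and TK substrate-biotin (1 μM) added; 1 h RT; stopped with EDTA-containing detection mix; HTRF read (ex 320, em 615/665 nm); IC50 by 4-parameter logistic fit.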

[1] = system: Ba/F3 cells expressing EGFR mutations; test: Cell proliferation assay, Ba/F3 cells expressing EGFR mutations (CellTiter-Glo, 72 hours); type: cell-based
In short: (§2)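 GI50 is the concentration giving 50% proliferation inhibition. Growth for this was normalised to a baseline viability reading taken when compound was added, and to DMSO wells. PC-9 (500 cells/well) and mutant-EGFR Ba/F3 (5000 cells/well) are treated after overnight seeding in RPMI1640-based medium.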

EGFR wild type = molecular target: T2, EGFR wild type (Homo sapiens, UniProt P00533); test: Inhibition of EGFR wild type biochemical enzymatic activity (HTRF); details: EGFR wild type, 1 mM ATP, 1 h at room temperature, read-out: IC50 @WT
T2 construct: purchased Carna Bio
T2 sequence (P00533 25-1210): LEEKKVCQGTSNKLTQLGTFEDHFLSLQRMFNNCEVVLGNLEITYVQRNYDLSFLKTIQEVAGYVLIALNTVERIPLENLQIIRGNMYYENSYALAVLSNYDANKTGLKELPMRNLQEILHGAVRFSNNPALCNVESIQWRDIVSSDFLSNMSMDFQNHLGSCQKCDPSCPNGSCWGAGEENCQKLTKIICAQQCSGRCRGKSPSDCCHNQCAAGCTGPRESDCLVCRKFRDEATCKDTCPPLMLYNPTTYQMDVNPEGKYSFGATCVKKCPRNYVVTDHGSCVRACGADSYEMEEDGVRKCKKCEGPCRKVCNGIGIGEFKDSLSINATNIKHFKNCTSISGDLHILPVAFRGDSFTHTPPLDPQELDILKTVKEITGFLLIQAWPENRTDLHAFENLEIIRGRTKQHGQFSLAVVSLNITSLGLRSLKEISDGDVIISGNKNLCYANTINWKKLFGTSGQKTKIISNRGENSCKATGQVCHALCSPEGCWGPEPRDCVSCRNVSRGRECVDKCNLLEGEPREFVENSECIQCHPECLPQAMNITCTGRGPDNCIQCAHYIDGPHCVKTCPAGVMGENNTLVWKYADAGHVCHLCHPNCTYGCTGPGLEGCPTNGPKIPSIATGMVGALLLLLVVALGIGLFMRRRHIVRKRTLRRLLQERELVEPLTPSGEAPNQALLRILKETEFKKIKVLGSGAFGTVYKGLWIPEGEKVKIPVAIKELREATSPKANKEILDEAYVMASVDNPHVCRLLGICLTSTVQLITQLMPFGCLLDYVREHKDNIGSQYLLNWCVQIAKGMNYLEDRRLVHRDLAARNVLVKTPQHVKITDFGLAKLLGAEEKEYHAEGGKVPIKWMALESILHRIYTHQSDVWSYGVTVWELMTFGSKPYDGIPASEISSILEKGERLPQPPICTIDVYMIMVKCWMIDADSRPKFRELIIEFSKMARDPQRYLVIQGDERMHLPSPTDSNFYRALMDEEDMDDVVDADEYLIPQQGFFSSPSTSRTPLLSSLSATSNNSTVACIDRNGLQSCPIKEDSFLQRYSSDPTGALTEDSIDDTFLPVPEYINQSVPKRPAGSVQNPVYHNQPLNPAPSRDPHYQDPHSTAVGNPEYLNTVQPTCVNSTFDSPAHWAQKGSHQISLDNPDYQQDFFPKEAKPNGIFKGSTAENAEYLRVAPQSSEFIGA
In short: as §1

EGFR (C797S L858R) = molecular target: T3, EGFR (C797S L858R) (Homo sapiens, UniProt P00533, C797S/L858R); test: Inhibition of EGFR (C797S L858R) biochemical enzymatic activity (HTRF); details: EGFR (C797S L858R), 1 mM ATP, 1 h at room temperature, read-out: IC50 @L858-C797S
T3 construct: purchased signalchem
In short: as §1

EGFR[T790M/C797S/L858R] = molecular target: T4, EGFR[T790M/C797S/L858R] (Homo sapiens, UniProt P00533, C797S/L858R/T790M); test: Inhibition of EGFR[T790M/C797S/L858R] biochemical enzymatic activity (HTRF); details: EGFR[T790M/C797S/L858R], 1 mM ATP, 1 h at room temperature, read-out: IC50 @T790M- C797S - L858R
T4 construct: purchased Carna Bio
T4 sequence (P00533 25-1210 T790M/C797S/L858R): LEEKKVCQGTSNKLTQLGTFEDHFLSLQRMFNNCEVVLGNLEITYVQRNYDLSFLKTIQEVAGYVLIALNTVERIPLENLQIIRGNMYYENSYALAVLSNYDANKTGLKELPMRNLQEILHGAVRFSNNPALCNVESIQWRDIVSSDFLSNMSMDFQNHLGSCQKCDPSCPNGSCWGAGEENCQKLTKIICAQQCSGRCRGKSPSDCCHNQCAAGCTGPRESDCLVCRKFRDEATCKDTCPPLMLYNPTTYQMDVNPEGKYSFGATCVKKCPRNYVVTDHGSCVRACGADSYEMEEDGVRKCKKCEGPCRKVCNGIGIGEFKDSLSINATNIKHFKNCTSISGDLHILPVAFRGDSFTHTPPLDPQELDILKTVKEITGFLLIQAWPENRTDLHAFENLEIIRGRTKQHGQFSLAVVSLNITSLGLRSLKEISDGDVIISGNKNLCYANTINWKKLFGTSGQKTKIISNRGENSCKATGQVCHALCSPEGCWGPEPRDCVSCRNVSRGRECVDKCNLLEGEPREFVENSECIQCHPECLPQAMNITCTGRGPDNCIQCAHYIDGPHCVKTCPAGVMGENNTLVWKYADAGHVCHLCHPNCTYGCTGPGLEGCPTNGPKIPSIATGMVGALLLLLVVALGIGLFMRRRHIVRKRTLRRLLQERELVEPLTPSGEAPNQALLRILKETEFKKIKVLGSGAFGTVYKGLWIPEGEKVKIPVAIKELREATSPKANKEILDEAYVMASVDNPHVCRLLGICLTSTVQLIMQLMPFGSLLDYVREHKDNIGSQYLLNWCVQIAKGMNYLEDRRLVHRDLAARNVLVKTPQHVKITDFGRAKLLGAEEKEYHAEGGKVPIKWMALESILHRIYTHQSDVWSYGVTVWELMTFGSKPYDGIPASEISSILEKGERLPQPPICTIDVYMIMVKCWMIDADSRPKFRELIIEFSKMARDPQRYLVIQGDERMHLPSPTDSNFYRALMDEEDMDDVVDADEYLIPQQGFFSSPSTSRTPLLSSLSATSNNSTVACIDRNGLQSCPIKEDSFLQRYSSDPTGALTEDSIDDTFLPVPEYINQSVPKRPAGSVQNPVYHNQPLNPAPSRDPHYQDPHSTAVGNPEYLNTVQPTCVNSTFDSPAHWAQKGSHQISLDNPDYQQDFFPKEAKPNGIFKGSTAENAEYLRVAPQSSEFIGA
In short: as §1

EGFR L858R/T790M = molecular target: T5, EGFR L858R/T790M (Homo sapiens, UniProt P00533, L858R/T790M); test: Inhibition of EGFR L858R/T790M biochemical enzymatic activity (HTRF); details: EGFR L858R/T790M, 1 mM ATP, 1 h at room temperature, read-out: IC50 @L858R-T790M
T5 construct: purchased Carna Bio
T5 sequence (P00533 25-1210 T790M/L858R): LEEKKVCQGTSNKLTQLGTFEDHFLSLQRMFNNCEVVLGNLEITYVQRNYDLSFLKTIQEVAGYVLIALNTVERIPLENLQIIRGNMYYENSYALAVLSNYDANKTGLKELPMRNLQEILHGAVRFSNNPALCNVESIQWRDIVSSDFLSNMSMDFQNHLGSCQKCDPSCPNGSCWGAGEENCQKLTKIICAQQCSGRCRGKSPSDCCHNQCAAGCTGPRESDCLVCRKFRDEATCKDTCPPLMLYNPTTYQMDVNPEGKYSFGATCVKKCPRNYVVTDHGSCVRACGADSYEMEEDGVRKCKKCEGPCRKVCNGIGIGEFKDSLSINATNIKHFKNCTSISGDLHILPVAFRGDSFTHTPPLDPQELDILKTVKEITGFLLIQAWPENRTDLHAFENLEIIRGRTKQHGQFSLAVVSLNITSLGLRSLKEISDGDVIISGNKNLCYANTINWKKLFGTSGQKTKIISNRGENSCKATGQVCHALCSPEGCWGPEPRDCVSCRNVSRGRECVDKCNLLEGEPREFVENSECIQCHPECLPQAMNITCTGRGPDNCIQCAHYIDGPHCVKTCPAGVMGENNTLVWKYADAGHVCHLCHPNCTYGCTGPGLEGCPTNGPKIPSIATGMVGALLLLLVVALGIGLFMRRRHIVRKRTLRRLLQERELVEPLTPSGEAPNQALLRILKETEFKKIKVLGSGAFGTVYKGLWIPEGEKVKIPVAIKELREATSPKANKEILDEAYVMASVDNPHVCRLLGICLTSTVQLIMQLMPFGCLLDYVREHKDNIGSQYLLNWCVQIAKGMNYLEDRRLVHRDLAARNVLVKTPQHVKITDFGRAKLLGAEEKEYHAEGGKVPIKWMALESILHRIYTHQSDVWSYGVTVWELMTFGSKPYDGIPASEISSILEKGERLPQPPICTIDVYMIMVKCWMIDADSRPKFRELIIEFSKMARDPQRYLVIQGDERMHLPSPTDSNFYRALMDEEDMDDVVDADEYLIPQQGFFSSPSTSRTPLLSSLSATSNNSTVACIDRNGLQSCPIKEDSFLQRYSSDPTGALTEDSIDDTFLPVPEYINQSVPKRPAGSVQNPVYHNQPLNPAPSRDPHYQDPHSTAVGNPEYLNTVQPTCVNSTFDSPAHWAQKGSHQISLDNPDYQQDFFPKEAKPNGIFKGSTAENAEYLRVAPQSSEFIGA
In short: as §1

PC-9 = test: Cell proliferation assay, PC-9 cells (CellTiter-Glo, 72 hours); type: cell-based; details: PC9 cells, read-out: GI50 PC9
In short: as §2

EGFR L858R = molecular target: T6, EGFR L858R (Homo sapiens, UniProt P00533, L858R); test: Inhibition of EGFR L858R biochemical enzymatic activity (HTRF); details: 1 mM ATP, 1 h at room temperature, read-out: IC50 @L858R
T6 construct: purchased Carna Bio
In short: as §1

EGFR Exon19Del/T790M = molecular target: T7, EGFR Exon19Del/T790M (Homo sapiens, UniProt P00533, DEL746-750/T790M); test: Inhibition of EGFR Exon19Del/T790M biochemical enzymatic activity (HTRF); details: EGFR Exon19Del/T790M, 1 mM ATP, 1 h at room temperature, read-out: IC50 @Del19-T790M
T7 construct: purchased Carna Bio
T7 sequence (P00533 with tags, fused parts or gaps DEL746-750/T790M limits assumed): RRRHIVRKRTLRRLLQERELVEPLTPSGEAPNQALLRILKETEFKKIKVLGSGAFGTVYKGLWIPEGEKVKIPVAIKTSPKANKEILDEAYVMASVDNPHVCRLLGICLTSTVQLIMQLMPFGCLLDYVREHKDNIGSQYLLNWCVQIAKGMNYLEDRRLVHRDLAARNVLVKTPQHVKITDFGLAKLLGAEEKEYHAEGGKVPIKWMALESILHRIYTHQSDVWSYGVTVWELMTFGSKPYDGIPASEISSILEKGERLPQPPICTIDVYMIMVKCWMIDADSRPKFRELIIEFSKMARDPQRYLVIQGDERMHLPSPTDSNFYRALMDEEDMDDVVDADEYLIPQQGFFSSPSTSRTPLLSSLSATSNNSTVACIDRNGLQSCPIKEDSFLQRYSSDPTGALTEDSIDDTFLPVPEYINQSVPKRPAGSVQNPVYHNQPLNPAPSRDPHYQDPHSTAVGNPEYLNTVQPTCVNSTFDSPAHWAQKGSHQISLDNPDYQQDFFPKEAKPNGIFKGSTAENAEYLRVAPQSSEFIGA
In short: as §1

[2] = molecular target: T8, EGFR[T790M/C797S/d746-750] (Homo sapiens, UniProt P00533, C797S/DEL746-750/T790M); test: Inhibition of EGFR[T790M/C797S/d746-750] biochemical enzymatic activity (HTRF); details: EGFR[T790M/C797S/d746-750], 1 mM ATP, 1 h at room temperature, read-out: IC50 @T790M - C797S - Del19
T8 construct: purchased Carna Bio
In short: as §1

EGFR Exon19Del = molecular target: T9, EGFR Exon19Del (Homo sapiens, UniProt P00533, DEL746-750); test: Inhibition of EGFR Exon19Del biochemical enzymatic activity (HTRF); details: EGFR Exon19Del, 1 mM ATP, 1 h at room temperature, read-out: IC50 @Del19
T9 construct: purchased Carna Bio
In short: as §1

[3] = BaF3 cells, EGFR DEL19 - C797S, read-out: GI50 DEL19 - C797S/BaF3
[4] = BaF3 cells, EGFR DEL19 - T790-C797S, read-out: GI50 DEL19 - T790-C797S/BaF3
[5] = BaF3 cells, EGFR L858R - C797S, read-out: GI50 L858R - C797S/BaF3
[6] = BaF3 cells, EGFR L858R - T790-C797S, read-out: GI50 L858R - T790-C797S/BaF3
[7] = BaF3 cells, EGFR L858R - T790M, read-out: GI50 L858R - T790M/BaF3
[8] = BaF3 cells, EGFR L858R, read-out: GI50 L858R/BaF3
[9] = EGFR DEL19 - T790M, read-out: GI50 DEL19 - T790M
[10] = Homo sapiens, A-431, A-431 cells

| SMILES | GI50 (A-431; A-431 cells) | IC50 (EGFR (d746-750 C797S)) | GI50 [1, 3] | GI50 [1, 4] | GI50 [1, 5] | GI50 [1, 6] | GI50 [1, 7] | GI50 [1, 8] | GI50 [1, 9] | IC50 (EGFR wild type) | IC50 (EGFR (C797S L858R)) | IC50 (EGFR[T790M/C797S/L858R]) | IC50 (EGFR L858R/T790M) | GI50 (PC-9) | IC50 (EGFR L858R) | IC50 (EGFR Exon19Del/T790M) | IC50 [2] | IC50 (EGFR Exon19Del) | GI50 (A-431; [10]) |
| --- | --- | --- | --- | --- | --- | --- | --- | --- | --- | --- | --- | --- | --- | --- | --- | --- | --- | --- | --- |
| Cc1cc2cc(n1)-c1cnn(C)c1OCCN1CC3CCC(C3)(C1)n1c(nc3ccc(N4CCN(C5CC5)CC4)cc31)NC2=O (single isomer, unassigned) [Example B55B] | 2080 nM | 1.7 nM | 2 nM | 2 nM | 11 nM | 2 nM | 2 nM | 17 nM | 7 nM | 1830 nM | 6 nM | 1.5 nM | 2.3 nM | 10 nM | 64 nM | 3.2 nM | 1.6 nM | 4.3 nM | – |
| CCN1CCN(c2ccc3nc4n(c3c2)C23CCC(CN(CCOc5c(cnn5C)-c5cc(cc(C)n5)C(=O)N4)C2)C3)CC1 (single isomer, unassigned) [Example B56B] | – | 1.7 nM | 2 nM | 2 nM | 5 nM | 2 nM | 2 nM | 12 nM | 7 nM | 392 nM | 5.1 nM | 1.6 nM | 3 nM | 10 nM | 26 nM | 4.1 nM | 2.3 nM | 4.4 nM | 426 nM |
| Cc1cc2cc(n1)-c1cnn(C)c1OCCN1CC3CCC(C3)(C1)n1c(nc3ccc(N4CCN(C(C)C)CC4)cc31)NC2=O (single isomer, unassigned) [Example B57B] | – | 2.1 nM | 2 nM | 2 nM | 8 nM | 2 nM | 2 nM | 9 nM | 2 nM | 543 nM | 6 nM | 1.8 nM | 3.7 nM | 8 nM | 31 nM | 4.3 nM | 2.6 nM | 6.1 nM | 257 nM |
| Cc1cc2cc(n1)-c1cnn(C)c1OCCN1CC3CCC(C3)(C1)n1c(nc3ccc(N4CCN(C5COC5)CC4)cc31)NC2=O (single isomer, unassigned) [Example B58A] | 8610 nM | 3890 nM | 163 nM | 229 nM | 828 nM | 90 nM | 307 nM | 1560 nM | 378 nM | > 5000 nM | > 5000 nM | > 5000 nM | > 5000 nM | 737 nM | > 5000 nM | > 5000 nM | > 5000 nM | > 5000 nM | – |
| Cc1cc2cc(n1)-c1cnn(C)c1OCCN1CC3CCC(C3)(C1)n1c(nc3ccc(N4CCN(C5COC5)CC4)cc31)NC2=O (single isomer, unassigned) [Example B58B] | 532 nM | 4.2 nM | 2 nM | 2 nM | 9 nM | 2 nM | 2 nM | 13 nM | 2 nM | 2750 nM | 33 nM | 3.1 nM | 5.9 nM | 9 nM | 134 nM | 5.5 nM | 3.2 nM | 12 nM | – |
